Patent publication US12053533B2, “Fluorescent probe for cyclooxygenase-2” (The Board of Trustees of the University of Illinois, priority 2020, dated 2024)
“Also recorded” adds a separate entry of the source.

Experiments:
[1] = target: T1, COX-1 isolated from bovine vesicles (Bos taurus, UniProt O62664); assay: Isoform selectivity: CoxFluor incubated with COX-1; format: biochemical; conditions: even in the presence of 10-fold excess enzyme activity
T1 construct: COX-1 isolated from bovine vesicles; from tissue; host or cells: bovine vesicles
T1 sequence (O62664 25-600): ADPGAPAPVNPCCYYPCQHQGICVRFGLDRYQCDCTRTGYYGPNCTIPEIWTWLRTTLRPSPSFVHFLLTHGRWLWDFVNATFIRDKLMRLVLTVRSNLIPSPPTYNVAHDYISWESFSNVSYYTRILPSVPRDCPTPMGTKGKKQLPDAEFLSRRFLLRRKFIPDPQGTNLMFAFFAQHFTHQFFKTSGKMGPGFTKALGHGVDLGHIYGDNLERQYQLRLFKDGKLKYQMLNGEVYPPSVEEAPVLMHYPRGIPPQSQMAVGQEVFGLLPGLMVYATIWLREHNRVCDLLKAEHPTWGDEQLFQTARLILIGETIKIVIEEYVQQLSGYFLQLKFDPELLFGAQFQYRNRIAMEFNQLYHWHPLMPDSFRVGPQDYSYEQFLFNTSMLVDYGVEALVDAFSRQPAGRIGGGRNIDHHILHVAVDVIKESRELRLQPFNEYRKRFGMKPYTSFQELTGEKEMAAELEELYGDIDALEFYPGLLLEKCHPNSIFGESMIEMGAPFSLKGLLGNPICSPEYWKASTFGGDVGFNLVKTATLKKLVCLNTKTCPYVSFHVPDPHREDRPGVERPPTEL
Procedure: Enzyme Selectivity. Enzyme activity was defined as the amount substrate (μmol) consumed during one minute by one milligram of enzyme in 100 mM Tris-HCl at pH 8.0 under saturating conditions. Enzyme concentrations were measured using the BCA assay (Thermo Fisher Scientific) according to the published protocol with bovine serum albumin for the standard curve. […] The oxygen electrode was calibrated using 1% sodium sulfite for 0% oxygen and atmosphere equilibrated 100 mM Tris-HCl at pH 8.0 for 100% oxygen. The reaction was monitored at 37° C. in a glass chamber with a total reaction volume of 1 mL. […] When measured, all enzyme activities were confirmed to be under saturating conditions and within the first 20% of the reaction. The selectivity of CoxFluor (10 μM) was monitored after incubation with either 0.101 U COX-2 or 1.01 U of the other enzymes, unless noted otherwise above, in 100 mM Tris-HCl buffer at pH 8.0 using the plate reader with excitation at 540 nm and emission at 590 nm. Total reaction volume was maintained at 95 μL with a final DMSO concentration of 1.26% (v/v).

[2] = Analyte selectivity (reactive species); conditions: CoxFluor 10 μM, analytes up to 500 μM (50 equiv), 4 h
Procedure: Analyte Selectivity. Response of CoxFluor (10 μM) to a variety of reactive oxygen, nitrogen, carbonyl, metals, and sulfur species (1, 3, 5, or 50 equiv) were monitored using the plate reader assay. Total volume of the reaction mixture was maintained at 190 μL in 100 mM Tris-HCl buffer (pH 8.0) with a final DMSO concentration of 1.26% (v/v). Assays for CoxFluor or resorufin were initiated by the addition of the analytes and the reactions were incubated at room temperature for up to 4 h. Measurements were recorded at a range of time points, and the relative turn-on was determined relative to a buffer control containing 10 μM CoxFluor or resorufin. Superoxide anion was added as a solution of potassium superoxide in DMSO. Nitroxyl was generated in situ from a solution of Angeli's salt in degassed 10 mM potassium hydroxide solution. Angeli's salt was prepared according to previously reported literature (Methods Enzymol. 1999, 301, 279). NO was generated in situ from a solution of MAHMA-NONOate in degassed 10 mM potassium hydroxide. Peroxynitrite was prepared according to previously reported literature (Anal. Biochem. 2006, 354, 165). All metals were prepared from their chloride salt. Formaldehyde solutions were prepared by depolymerizing saturated aqueous solutions at 100° C. before use. […]

[3] = tested on: COX-2 activity in RAW 264.7 macrophage cells; assay: Flow cytometry of LPS-induced COX-2 activity in RAW 264.7 macrophages; format: cell-based, mouse; conditions: CoxFluor 10 μM
Text: Flow Cytometry of Lipopolysaccharide-induced COX-2 Expression in RAW 264.7 Macrophages. […] After staining, cells were pelleted using the aforementioned procedure and were resuspended in PBS. […] Replicate numbers correspond to biological replicates.

COX-2 = target: T2, COX-2 (Homo sapiens, UniProt P35354); assay: COX-2 fluorescence assay with CoxFluor (fluorimeter / plate reader); format: biochemical; design: made in house
T2 sequence (P35354 18-604): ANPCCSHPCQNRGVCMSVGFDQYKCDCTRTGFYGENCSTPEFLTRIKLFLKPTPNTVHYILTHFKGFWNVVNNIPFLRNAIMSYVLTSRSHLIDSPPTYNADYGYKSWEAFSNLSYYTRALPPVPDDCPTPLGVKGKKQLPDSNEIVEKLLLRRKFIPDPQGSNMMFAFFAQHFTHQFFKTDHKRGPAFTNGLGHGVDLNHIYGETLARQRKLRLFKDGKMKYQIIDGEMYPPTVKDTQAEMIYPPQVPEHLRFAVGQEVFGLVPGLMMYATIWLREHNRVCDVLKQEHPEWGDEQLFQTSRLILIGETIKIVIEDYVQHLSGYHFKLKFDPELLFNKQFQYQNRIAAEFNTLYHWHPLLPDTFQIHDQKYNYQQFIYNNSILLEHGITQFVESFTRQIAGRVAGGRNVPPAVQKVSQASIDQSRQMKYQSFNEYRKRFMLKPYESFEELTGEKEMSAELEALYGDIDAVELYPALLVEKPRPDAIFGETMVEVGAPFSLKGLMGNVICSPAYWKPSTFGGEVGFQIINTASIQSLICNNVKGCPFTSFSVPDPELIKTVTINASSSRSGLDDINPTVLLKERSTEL
Procedure: Fluorimeter Fluorescence Assay. The fluorescence assays were performed in microquartz cuvettes or submicroquartz cuvettes with a maximum volume of 600 μL. Reactions were monitored at room temperature using 540 nm excitation and emission was collected from 550-700 nm with a slit width of 1.25 mm. Total volumes of the reaction mixtures were maintained at 570 μL. […] Experiments in the presence of reduced GSH were conducted according to the same procedure, but GSH (30 μL, 19 mM in 100 mM Tris-HCl, pH 8.0) was added before the addition of CoxFluor for a final concentration of 1 mM. Assays performed in submicroquartz cuvettes were performed maintaining the same ratios, but with a final volume of 142.5 μL.
Plate Reader Fluorescence Assay. The fluorescence assays were performed at room temperature using 540 nm excitation and 590 nm emission. Total volume of the reaction mixture was maintained at 190 μL. […] Inhibition assays were performed according to the same procedure, but COX-2 was preincubated with hemin and inhibitor for 0.5 h at 0° C. before initiation with CoxFluor. Relative fluorescence enhancement is calculated by comparing to a buffer control with 10 μM CoxFluor.

With `CCCCC/C=C\C/C=C\C/C=C\C/C=C\CCCC(=O)N1c2ccc(O)cc2Oc2cc(O)ccc21` [CoxFluor] the “fluorescent enhancement with COX-1” value [1] was “not observed; also recorded: No fluorescent enhancement was observed”, the “activation by reactive oxygen/nitrogen species and other oxidants and reductants” value [2] was “no undesirable activation” and the “increase in median fluorescence, cells activated 19 hr compared to 4 hr” value ([3]; after BSO pre-treatment) was 1.6 fold. For the same molecule, the “increase in activity after 19 hr LPS-activation relative to 4 hr” value ([3]; without GSH depletion) was 1.2 fold, the “measured rate for turnover relative to natural substrate cyclooxygenase activity” value (COX-2) was ≤ 100 fold and the fluorescent turn-on response (COX-2; CoxFluor 10 μM, COX-2 250 nM, hemin 1 μM, 4 h, room temperature, 100 mM Tris HCl pH 8.0) was 41 fold. The “COX-2-specific fluorescence enhancement in the presence of glutathione” value (COX-2; glutathione 1 mM, COX-2 250 nM) was “maintained significant COX-2-specific fluorescence enhancements”.
